# Source: ChEMBL document CHEMBL1201862, “PubChem BioAssay data set” (2004)
#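 1) Cells in 96-well plates. 2) Compound, 48 h, 5 concentrations. 3) Linear interpolation between surrounding doses. 4) Unreached endpoint = highest concentration. GI50 = concentration required for 50% inhibition of growth.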 Active and inactive are the calls of the source. Rule as the data show it: active = GI50 up to about 1.1 µM and inactive = higher.
# Tests used:
# Assay in all cases: NCI-60 cell line screen, 48 h
# [1] = test system: NCI/ADR-RES
# [2] = test system: MOLT-4
# [3] = test system: MDA-MB-231
# [4] = test system: COLO 205
# [5] = test system: UACC-257
# [6] = test system: OVCAR-5
# [7] = test system: NCI-H460
# [8] = test system: SR
# [9] = test system: HCC 2998
# [10] = test system: SF-295
# [11] = test system: ACHN
# [12] = test system: BT-549
# [13] = test system: UACC-62
# [14] = test system: SNB-75
# [15] = test system: MCF7
# [16] = test system: SK-MEL-28
# [17] = test system: UO-31
# [18] = test system: EKVX
# [19] = test system: OVCAR-3
# [20] = test system: OVCAR-8
# [21] = test system: SK-MEL-5
# [22] = test system: HCT-116
# [23] = test system: SF-539
# [24] = test system: SF-268
# [25] = test system: T47D
# [26] = test system: HOP-62
# [27] = test system: Hs-578T
# [28] = test system: SW-620
# [29] = test system: SN12C
# [30] = test system: CCRF-CEM
# [31] = test system: MDA-N
# [32] = test system: HL-60
# [33] = test system: HT-29
# [34] = test system: DU-145
# [35] = test system: TK-10
# [36] = test system: CAKI-1
# [37] = test system: SNB-19
# [38] = test system: IGROV-1
# [39] = test system: NCI-H522
# [40] = test system: KM12
# [41] = test system: PC-3
# [42] = test system: A549
# [43] = test system: SK-OV-3
# [44] = test system: K562
# [45] = test system: HOP-92
# [46] = test system: M14
# [47] = test system: A498
# [48] = test system: Malme-3M
# [49] = test system: OVCAR-4
# [50] = test system: NCI-H23
# [51] = test system: RXF 393
# [52] = test system: RPMI-8226
# [53] = test system: MDA-MB-435
# [54] = test system: 786-0
# [55] = test system: HCT-15
# [56] = test system: LOX IMVI
# [57] = test system: U-251
# [58] = test system: NCI-H226
# [59] = test system: SK-MEL-2
smiles,measurement,setting,value
Nc1ccc2cc3ccc(N)cc3nc2c1,GI50,[1],1.03 µM (active)
same,GI50,[2],0.524 µM (active)
same,GI50,[3],1.94 µM (inactive)
same,GI50,[4],0.771 µM (active)
same,GI50,[5],2 µM (inactive)
same,GI50,[6],1.63 µM (inactive)
same,GI50,[7],0.46 µM (active)
same,GI50,[8],0.667 µM (active)
same,GI50,[9],1.25 µM (inactive)
same,GI50,[10],2.42 µM (inactive)
same,GI50,[11],0.826 µM (active)
same,GI50,[12],3.72 µM (inactive)
same,GI50,[13],1.41 µM (inactive)
same,GI50,[14],1.34 µM (inactive)
same,GI50,[15],0.757 µM (active)
same,GI50,[16],2 µM (inactive)
same,GI50,[17],0.993 µM (active)
same,GI50,[18],1.56 µM (inactive)
same,GI50,[19],2.09 µM (inactive)
same,GI50,[20],0.678 µM (active)
same,GI50,[21],1.4 µM (inactive)
same,GI50,[22],0.482 µM (active)
same,GI50,[23],1.02 µM (active)
same,GI50,[24],1.37 µM (inactive)
same,GI50,[25],2.63 µM (inactive)
same,GI50,[26],1.62 µM (inactive)
same,GI50,[27],2.43 µM (inactive)
same,GI50,[28],0.395 µM (active)
same,GI50,[29],0.979 µM (active)
same,GI50,[30],1 µM (active)
same,GI50,[31],1.41 µM (inactive)
same,GI50,[32],1.56 µM (inactive)
same,GI50,[33],0.499 µM (active)
same,GI50,[34],3.33 µM (inactive)
same,GI50,[35],2.69 µM (inactive)
same,GI50,[36],1.56 µM (inactive)
CC1(C)C[C@H]2[C@H](O)C(CO)=C3C(=O)[C@@H](O)[C@]3(C)[C@H]2C1,GI50,[1],> 100 µM (inactive)
same,GI50,[37],> 100 µM (inactive)
same,GI50,[2],17.4 µM (inactive)
same,GI50,[3],> 100 µM (inactive)
same,GI50,[4],> 100 µM (inactive)
same,GI50,[5],> 100 µM (inactive)
same,GI50,[6],> 100 µM (inactive)
same,GI50,[8],50.2 µM (inactive)
same,GI50,[9],> 100 µM (inactive)
same,GI50,[10],> 100 µM (inactive)
same,GI50,[11],> 100 µM (inactive)
same,GI50,[12],45.7 µM (inactive)
same,GI50,[13],> 100 µM (inactive)
same,GI50,[15],44.8 µM (inactive)
same,GI50,[38],> 100 µM (inactive)
same,GI50,[39],64.6 µM (inactive)
same,GI50,[40],> 100 µM (inactive)
same,GI50,[41],> 100 µM (inactive)
same,GI50,[42],> 100 µM (inactive)
same,GI50,[16],> 100 µM (inactive)
same,GI50,[43],> 100 µM (inactive)
same,GI50,[17],89.5 µM (inactive)
same,GI50,[18],> 100 µM (inactive)
same,GI50,[44],36.6 µM (inactive)
same,GI50,[19],> 100 µM (inactive)
same,GI50,[20],> 100 µM (inactive)
same,GI50,[45],> 100 µM (inactive)
same,GI50,[21],> 100 µM (inactive)
same,GI50,[46],> 100 µM (inactive)
same,GI50,[22],75.9 µM (inactive)
same,GI50,[47],> 100 µM (inactive)
same,GI50,[23],48.6 µM (inactive)
same,GI50,[24],87.1 µM (inactive)
same,GI50,[25],74.6 µM (inactive)
same,GI50,[26],> 100 µM (inactive)
same,GI50,[48],> 100 µM (inactive)
same,GI50,[49],> 100 µM (inactive)
same,GI50,[28],> 100 µM (inactive)
same,GI50,[50],63.7 µM (inactive)
same,GI50,[29],> 100 µM (inactive)
same,GI50,[30],24.5 µM (inactive)
same,GI50,[31],80.2 µM (inactive)
same,GI50,[33],85.7 µM (inactive)
same,GI50,[51],61.7 µM (inactive)
same,GI50,[34],> 100 µM (inactive)
same,GI50,[52],38.4 µM (inactive)
same,GI50,[53],50.5 µM (inactive)
same,GI50,[54],> 100 µM (inactive)
same,GI50,[55],52.5 µM
same,GI50,[35],> 100 µM (inactive)
same,GI50,[56],44.4 µM (inactive)
same,GI50,[57],> 100 µM (inactive)
same,GI50,[36],> 100 µM (inactive)
same,GI50,[58],> 100 µM (inactive)
same,GI50,[59],> 100 µM (inactive)
C=CCc1c(C)nc(C)nc1N/N=C/C=C/c1ccccc1,GI50,[1],23.9 µM (inactive)
same,GI50,[37],31.8 µM (inactive)
same,GI50,[2],22.4 µM (inactive)
same,GI50,[3],> 100 µM (inactive)
same,GI50,[4],24.8 µM (inactive)
same,GI50,[5],14.4 µM (inactive)
same,GI50,[6],99.5 µM (inactive)
same,GI50,[7],22.4 µM (inactive)
same,GI50,[8],22.6 µM (inactive)
same,GI50,[10],19.5 µM (inactive)
same,GI50,[11],> 100 µM (inactive)
same,GI50,[12],23.8 µM (inactive)
same,GI50,[13],20.6 µM (inactive)
same,GI50,[14],21.9 µM (inactive)
same,GI50,[15],23.6 µM (inactive)
same,GI50,[38],31.4 µM (inactive)
same,GI50,[39],28.2 µM (inactive)
same,GI50,[41],34.9 µM (inactive)
same,GI50,[42],37.4 µM (inactive)
same,GI50,[16],41 µM (inactive)
same,GI50,[43],55.5 µM (inactive)
same,GI50,[17],39.7 µM (inactive)
same,GI50,[18],17.6 µM (inactive)
same,GI50,[44],23.3 µM (inactive)
same,GI50,[19],19.4 µM (inactive)
same,GI50,[20],32.2 µM (inactive)
same,GI50,[45],40.5 µM (inactive)
same,GI50,[21],20.3 µM (inactive)
same,GI50,[46],31.2 µM (inactive)
same,GI50,[22],36.1 µM (inactive)
same,GI50,[47],25.9 µM (inactive)
same,GI50,[23],32.1 µM (inactive)
same,GI50,[24],44.1 µM (inactive)
same,GI50,[25],3.73 µM (inactive)
same,GI50,[26],16.5 µM (inactive)
same,GI50,[48],70 µM (inactive)
same,GI50,[27],48.9 µM (inactive)
same,GI50,[49],0.0435 µM (active)
same,GI50,[28],51.8 µM (inactive)
same,GI50,[50],27.9 µM (inactive)
same,GI50,[29],48 µM (inactive)
same,GI50,[30],44 µM (inactive)
same,GI50,[31],29.2 µM (inactive)
same,GI50,[32],33.6 µM (inactive)
same,GI50,[33],30.8 µM (inactive)
same,GI50,[51],4.06 µM (inactive)
same,GI50,[52],21.9 µM (inactive)
same,GI50,[53],23.6 µM (inactive)
same,GI50,[54],65.2 µM (inactive)
same,GI50,[55],35.4 µM
same,GI50,[35],33 µM (inactive)
same,GI50,[56],39.1 µM (inactive)
same,GI50,[57],23.6 µM (inactive)
same,GI50,[36],58.6 µM (inactive)
same,GI50,[58],> 100 µM (inactive)
same,GI50,[59],36.7 µM (inactive)
CSc1nc(C)c(CCCl)c(Cl)n1,GI50,[1],> 100 µM (inactive)
same,GI50,[37],> 100 µM (inactive)
same,GI50,[2],27.4 µM (inactive)
same,GI50,[3],> 100 µM (inactive)
same,GI50,[4],35.2 µM (inactive)
same,GI50,[5],> 100 µM (inactive)
same,GI50,[7],> 100 µM (inactive)
same,GI50,[9],> 100 µM (inactive)
same,GI50,[10],> 100 µM (inactive)
same,GI50,[11],> 100 µM (inactive)
same,GI50,[12],87.7 µM (inactive)
same,GI50,[13],89.1 µM (inactive)
same,GI50,[14],> 100 µM (inactive)
same,GI50,[38],> 100 µM (inactive)
same,GI50,[39],20.6 µM (inactive)
same,GI50,[41],> 100 µM (inactive)
same,GI50,[42],> 100 µM (inactive)
same,GI50,[16],> 100 µM (inactive)
same,GI50,[43],> 100 µM (inactive)
same,GI50,[17],> 100 µM (inactive)
same,GI50,[18],> 100 µM (inactive)
same,GI50,[44],31.8 µM (inactive)
same,GI50,[19],> 100 µM (inactive)
same,GI50,[20],> 100 µM (inactive)
same,GI50,[21],42.1 µM (inactive)
same,GI50,[46],32.4 µM (inactive)
same,GI50,[22],36.6 µM (inactive)
same,GI50,[47],> 100 µM (inactive)
same,GI50,[23],> 100 µM (inactive)
same,GI50,[24],> 100 µM (inactive)
same,GI50,[25],> 100 µM (inactive)
same,GI50,[26],> 100 µM (inactive)
same,GI50,[48],> 100 µM (inactive)
same,GI50,[27],> 100 µM (inactive)
same,GI50,[49],> 100 µM (inactive)
same,GI50,[28],42.6 µM (inactive)
same,GI50,[50],> 100 µM (inactive)
same,GI50,[29],52.6 µM (inactive)
same,GI50,[30],20.8 µM (inactive)
same,GI50,[31],49.8 µM (inactive)
same,GI50,[33],> 100 µM (inactive)
same,GI50,[51],> 100 µM (inactive)
same,GI50,[34],> 100 µM (inactive)
same,GI50,[53],34.1 µM (inactive)
same,GI50,[54],> 100 µM (inactive)
same,GI50,[55],> 100 µM
same,GI50,[35],> 100 µM (inactive)
same,GI50,[56],29.6 µM (inactive)
same,GI50,[57],> 100 µM (inactive)
same,GI50,[36],> 100 µM (inactive)
